Test results taken from US9924715B2, “Zinc or copper (II) salt and use thereof as a biocide” (LABORATORIYA BIO ZET, LLC, priority 2014, dated 2018).
Values joined by “and” are separate entries in the source; they are usually repeats but may differ in a detail not shown here. Equal entries are not always repeated.

How the values were obtained:
Format in all cases: cell-based
[1] = tested on: fungal spores; assay: Fungicidal activity, GOST 30028.4-2006, resistance of treated materials
Description: The fungicidal activity of the proposed salts is determined according to GOST 30028.4-2006 by testing samples of various materials treated with these salts for resistance to fungal spores. Test results in terms of tolerance time (in days) are given in Table 4 wherein tolerance time for untreated materials are given for comparison.

[2] = tested on: E. coli No. 906; assay: Bactericidal activity: exposure in solution, neutralization, inoculation on solid medium; set-up: key to Bacterial growth after exposure (colony-forming units in 1 ml): NG—no growth; CG—confluent growth; conditions: for Bacterial growth after exposure (colony-forming units in 1 ml): E. coli 906; for Bactericidal effect: E. coli No. 906
[3] = tested on: S. aureus No. 1257; assay: as above; set-up: key to Bacterial growth after exposure (colony-forming units in 1 ml): NG—no growth; CG—confluent growth; conditions: for Bacterial growth after exposure (colony-forming units in 1 ml): S. aureus 1257; for Bactericidal effect: S. aureus No. 1257
[4] = tested on: clinical strain P. aeruginosa; assay: as above; set-up: key to Bacterial growth after exposure (colony-forming units in 1 ml): NG—no growth; CG—confluent growth; conditions: for Bactericidal effect: 4.0%
[5] = Emulsion polyvinyl chloride, additive content 5 wt %, untreated control 6 days
[6] = Paper impregnated with latex SKS 65 GP, additive content 5 wt %, untreated control 4 days

Compound	Tolerance time [1, 5] [days]	Bacterial growth after exposure (colony-forming units in 1 ml) ([2]; 2.0 wt %, exposure 5 min)	Bacterial growth after exposure (colony-forming units in 1 ml) ([2]; 2.0 wt %, exposure 15 min) [CFU]	Bacterial growth after exposure (colony-forming units in 1 ml) ([2]; 2.0 wt %, exposure 30 min)	Bacterial growth after exposure (colony-forming units in 1 ml) ([2]; 4.0 wt %, exposure 5 min)	Bacterial growth after exposure (colony-forming units in 1 ml) ([2]; 4.0 wt %, exposure 15 min)	Bacterial growth after exposure (colony-forming units in 1 ml) ([2]; 4.0 wt %, exposure 30 min)	Bacterial growth after exposure (colony-forming units in 1 ml) ([2]; 4.0 wt %, exposure 60 min)	Bacterial growth after exposure (colony-forming units in 1 ml) ([3]; 2.0 wt %, exposure 5 min)	Bacterial growth after exposure (colony-forming units in 1 ml) ([3]; 2.0 wt %, exposure 15 min)	Bacterial growth after exposure (colony-forming units in 1 ml) ([3]; 2.0 wt %, exposure 30 min)	Bacterial growth after exposure (colony-forming units in 1 ml) ([3]; 4.0 wt %, exposure 5 min)	Bacterial growth after exposure (colony-forming units in 1 ml) ([3]; 4.0 wt %, exposure 15 min)	Bacterial growth after exposure (colony-forming units in 1 ml) ([3]; 4.0 wt %, exposure 30 min)	Bacterial growth after exposure (colony-forming units in 1 ml) ([3]; 4.0 wt %, exposure 60 min)	Tolerance time [1, 6] [days]	other results
Copper methacrylate-valerate	16																
C=CC(=O)[O-].CCCCCCCCCCCCCCCCCC(=O)[O-].[Cu+2] [Copper acrylate-stearate]	12	CG	100	10 CFU	NG	NG	NG	NG	CG	>300 CFU	25 CFU	NG	NG	NG	NG	16	Bacterial growth after exposure (colony-forming units in 1 ml) ([2]; 2.0 wt %, exposure 60 min): NG; Bactericidal effect ([2]; 2.0%, exposure 60 min): sustained bactericidal effect; Bactericidal effect ([2]; 4.0%, exposure from 5 min): sustained bactericidal effect; Bacterial growth after exposure (colony-forming units in 1 ml) ([3]; 2.0 wt %, exposure 60 min): NG; Bactericidal effect ([3]; 2.0%, exposure 60 min): sustained bactericidal effect; Bactericidal effect ([3]; 4.0%, exposure from 5 min): sustained bactericidal effect; Bacterial growth after exposure (colony-forming units in 1 ml) ([4]; 2.0 wt %, exposure 5 min): CG; Bacterial growth after exposure (colony-forming units in 1 ml) ([4]; 2.0 wt %, exposure 15 min): CG; Bacterial growth after exposure (colony-forming units in 1 ml) ([4]; 2.0 wt %, exposure 30 min): CG; Bacterial growth after exposure (colony-forming units in 1 ml) ([4]; 2.0 wt %, exposure 60 min): CG; Bactericidal effect ([4]; exposure of more than 30 min): bactericidal effect; Bacterial growth after exposure (colony-forming units in 1 ml) ([4]; 4.0 wt %, exposure 5 min): CG; Bacterial growth after exposure (colony-forming units in 1 ml) ([4]; 4.0 wt %, exposure 15 min): >300 CFU; Bacterial growth after exposure (colony-forming units in 1 ml) ([4]; 4.0 wt %, exposure 60 min): NG
Copper methacrylate-sorbate		>300 CFU	78	45 CFU and 53 CFU	1 CFU	NG	NG	NG	>300 CFU	85 CFU	35 CFU and 43 CFU	NG	NG	NG	NG		Bacterial growth after exposure (colony-forming units in 1 ml) ([2]; 2.0 wt %, exposure 60 min): 5 CFU and 4 CFU; Bactericidal effect ([2]; 4.0%, exposure from 15 min): sustained bactericidal effect; Bactericidal effect ([3]; 4.0%, exposure from 15 min): sustained bactericidal effect; Bactericidal effect ([4]; exposure from 15 min): sustained bactericidal effect
Zinc methacrylate-butyrate	11															10	
Zinc methacrylate-myristate	12																
C=CC(=O)[O-].CCCCCCCCCC(=O)[O-].[Cu+2] [Copper acrylate-caprinate]	20															19	Tolerance time ([1]; Paper impregnated with petrolatum base, additive content 5 wt %, untreated control 15 days): 21 days
C/C=C/C(=O)[O-].C=CC(=O)[O-].[Zn+2] [Zinc acrylate-crotonate, zinc acrylate-crotonate]		75 CFU	42	>300 CFU	NG	NG	NG	NG	CG	CG	CG	7 CFU	NG	NG	NG		Bactericidal effect ([2]; 4.0%, exposure from 15 min): sustained bactericidal effect; Bacterial growth after exposure (colony-forming units in 1 ml) ([3]; 2.0 wt %, exposure 60 min): >300 CFU; Bactericidal effect ([3]; 4.0%, exposure from 15 min): sustained bactericidal effect; Bacterial growth after exposure (colony-forming units in 1 ml) ([4]; 2.0 wt %, exposure 5 min): >300 CFU; Bacterial growth after exposure (colony-forming units in 1 ml) ([4]; 2.0 wt %, exposure 15 min): 10 CFU; Bacterial growth after exposure (colony-forming units in 1 ml) ([4]; 2.0 wt %, exposure 30 min): 4 CFU; Bactericidal effect ([4]; exposure from 15 min): sustained bactericidal effect; Bacterial growth after exposure (colony-forming units in 1 ml) ([4]; 4.0 wt %, exposure 5 min): 1 CFU; Bacterial growth after exposure (colony-forming units in 1 ml) ([4]; 4.0 wt %, exposure 15 min): NG; Bacterial growth after exposure (colony-forming units in 1 ml) ([4]; 4.0 wt %, exposure 30 min): NG; Bacterial growth after exposure (colony-forming units in 1 ml) ([4]; 4.0 wt %, exposure 60 min): NG
C=CC(=O)[O-].CCCCCCCCCCC(=O)[O-].[Zn+2] [Zinc acrylate-undecylate]	10															12	Tolerance time ([1]; Paper impregnated with petrolatum base, additive content 4.7 wt %, untreated control 15 days): 20 days
